The experiment has as its system sows. Kind of experiment: Oral L-arginine supplementation of sows during pregnancy. Format: in vivo, pigs. The procedure:
The experiment was performed with 197 sows that had already produced at least one litter. Sows in the control group (n=95) received a normal diet during gestation. Sows in the L-arginine group (n=102) received a normal diet from insemination until day 13 of pregnancy, an L-arginine supplemented diet from day 14 until day 31, again the control diet from day 32 until day 104 and again the L-arginine supplemented diet from day 105 until farrowing.
The L-arginine supplemented diet was the same as the control diet, except for the addition of 10 g L-arginine per kg.

For `N=C(N)NCCC[C@H](N)C(=O)O` [L-arginine], the “Sows (litters) with stillborn piglets” value (41 sows of the L-arginine group, same percentage as control) is listed as 47.1%. Also, the “Average number of stillborn piglets in litters with stillborn piglets” value (not significantly different from control) is reported as 1.86±0.22. Further, for the setting “piglets born alive, corrected for litter size”, the “Birth weight NBA corrected for LS” value is recorded as 1597 ± 24 g. In addition, the “Birth weight NBA” value (piglets born alive, not corrected for litter size) worked out at 1584 ± 27 g. Moreover, the “Total number born + mummies” value (piglets per litter, corrected for parity, L-arginine diet day 14-31 and day 105 until farrowing, p<0.05 vs control) was determined as 12.74 ± 0.31. In addition, the “Total number born (TNB)” value (piglets per litter, L-arginine diet day 14-31 and day 105 until farrowing, p<0.05 vs control) was found to be 12.69 ± 0.31. Also, the “Number born alive (NBA)” value (piglets per litter, L-arginine diet day 14-31 and day 105 until farrowing, p=0.055 vs control) is listed as 11.77 ± 0.30^+. Besides, the “Birth weight TNB corrected for LS” value (piglets, total number born, corrected for litter size) is 1578 ± 23 g. For the setting “piglets, total number born, not corrected for litter size”, the “Birth weight TNB” value was found to be 1563 ± 27 g. The same molecule registered a Farrowing rate (sows, diet with 10 g L-arginine per kg added, day 14-31 and day 105 until farrowing, 87/102) of 85%. The “Effect on litter size (total number born and number born alive), piglets extra” value (versus control group) is listed as about 1 piglet.

These data come from US8303979B2, “Dietary modifications to improve fertility” (Nutreco Nederland B.V., priority 2001, dated 2012).
